The results in this text go back to patent US20260055152A1, “INTRACELLULAR CX3CL1 DOMAIN PEPTIDES AND USES THEREOF” (University of Connecticut, priority 2022, published 2026).

The assay deals with Akt. Nature of the assay: Akt inhibition assay in cultured N2A cells. The assay is classed as cell-based, mouse.

As to `NC1(c2ccc(-c3nc4ccn5c(=O)[nH]nc5c4cc3-c3ccccc3)cc2)CCC1` [MK2206], the “phosphorylation of GSK3β and Foxo3” value (N2A cells treated with 2 μM Tet34 or controls 24 hrs, then 2 μM MK2206 3hrs) was “diminish”. Also, the “Tet34 induced effects on Foxo3 phosphorylation” value (N2A cultures with Tet-CX3CL1-ICD peptides in presence of MK2206) was “abolished”.
